{
  "source": "patent US5120758A",
  "about": "“Certain benzodioxole, benzodioxane and benzodioxepin derivatives useful as 5-lipoxygenase inhibitors” (Ciba-Geigy Corporation, priority 1991, dated 1992)",
  "key": {"[1]": {"target": "T1, 5-lipoxygenase (Cavia porcellus, UniProt A0A286X958)", "T1 construct": "in A-23187-stimulated guinea pig polymorphonuclear leukocytes; endogenous in cells; host or cells: guinea pig polymorphonuclear leukocytes", "T1 sequence (A0A286X958 1-674)": "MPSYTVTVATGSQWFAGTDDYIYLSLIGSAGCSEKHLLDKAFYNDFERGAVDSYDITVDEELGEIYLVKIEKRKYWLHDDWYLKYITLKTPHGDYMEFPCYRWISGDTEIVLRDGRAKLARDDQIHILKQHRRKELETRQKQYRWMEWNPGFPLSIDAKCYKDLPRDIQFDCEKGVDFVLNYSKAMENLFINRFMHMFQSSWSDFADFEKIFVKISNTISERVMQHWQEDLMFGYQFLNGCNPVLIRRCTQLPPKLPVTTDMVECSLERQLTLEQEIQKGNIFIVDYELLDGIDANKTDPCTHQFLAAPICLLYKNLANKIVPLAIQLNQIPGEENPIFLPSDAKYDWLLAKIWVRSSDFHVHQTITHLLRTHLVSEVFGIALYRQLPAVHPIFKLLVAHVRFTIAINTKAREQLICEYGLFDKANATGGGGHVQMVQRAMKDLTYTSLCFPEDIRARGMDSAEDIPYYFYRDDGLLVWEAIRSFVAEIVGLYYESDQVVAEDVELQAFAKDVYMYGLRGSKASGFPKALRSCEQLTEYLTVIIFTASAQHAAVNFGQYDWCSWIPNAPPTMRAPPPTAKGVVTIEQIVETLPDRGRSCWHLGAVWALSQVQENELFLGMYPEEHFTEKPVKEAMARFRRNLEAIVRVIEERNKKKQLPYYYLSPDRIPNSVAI", "assay": "Inhibition of 5-HETE and LTB4 synthesis in A-23187-stimulated guinea pig polymorphonuclear leukocytes", "type": "cell-based", "description": "5-Lipoxygenase inhibition is determined e.g. by measuring the percent inhibition of the synthesis of 5-HETE [(5S)-5-hydroxy-6,8,11,14-eicosa-tetraenoic acid] and leukotriene B4 (LTB4, 5,12-dihydroxy-6,8,10,14-eicosatetraenoic acid) in A-23187-stimulated guinea pig polymorphonuclear leukocytes, essentially according to radiometric thin-layer chromatographic assays described by Walker and Dawson (J. Pharm. Pharmacol. 31: 778, 1979) and Jakschik and Lee (Nature 287: 51, 1980) to measure the formation of 5-HETE and LTB4 -like products from ^14 C-arachidonic acid. IC50 values are determined graphically as the concentration of test compound at which the synthesis of 5-HETE and LTB4 -like products is reduced to 50% of their respective control values."}, "[2]": {"system": "5-lipoxygenase", "assay": "Ex vivo inhibition of A-23187-stimulated LTB4 formation in whole blood after oral administration", "conditions": "dose of about 1.0 mg/kg p.o. to the dog", "description": "Furthermore, the inhibition of 5-lipoxygenase is determined after oral or i.v. administration to rats or dogs by measuring ex vivo in whole blood the decrease of A-23187-stimulated LTB4 formation as compared to non-treated control animals."}},
  "note": "Read-outs that look alike come from different tables or passages of the source.",
  "data": [
    {"compound": "NC(=O)N(O)CC1COc2ccc(Oc3ccc(F)cc3)cc2O1", "note": "(stereo not drawn) [1(c), 2-(N-aminocarbonyl-N-hydroxy)aminomethyl-7-(4-fluorophenoxy)-1,4-benzodioxane]", "values": [
      {"measurement": "IC50", "setting": "[1]; read-out: IC50, inhibition of formation of 5-HETE", "result": "~0.1", "unit": "µM"},
      {"measurement": "IC50", "setting": "[1]; read-out: IC50, inhibition of formation of leukotriene B4 (LTB4)", "result": "~0.12", "unit": "µM"},
      {"measurement": "inhibition of LTB4 formation as determined ex vivo", "setting": "[2]", "result": "significant inhibition"}
    ]}
  ]
}
